In US20230212246A1, “TGF-B AS A THERAPEUTIC TARGET FOR INTRACRANIAL ANEURYSM” (THE BOARD OF REGENTS OF THE UNIVERSITY OF TEXAS SYSTEM, priority 2022, published 2023):

Experiments:
[1] = test system: p-Smad2; assay: Activin treatment time course of p-Smad2 in HBMEC; assay type: cell-based, human; settings: HBMEC cells, FIG. 6a
Experimental: (§1) Cells were lysed in 1% Triton lysis buffer and sonicated briefly before centrifuged at 18506 g for 30 min at 4° C. Total cell lysates were added by 2X SDS sample buffer and then subjected to discontinuous SDS-PAGE analysis. Proteins were transferred to nitro-cellulose membranes using a Bio-Rad (Hercules, Calif.) mini transfer apparatus followed by blocking with 5% nonfat milk. Primary antibodies and secondary antibodies were used usually at 1:1000 and 1:10000 dilutions respectively before using an Odyssey system to detect the fluorescence signal.
(§2) FIG. 3 is a drawing depicting a representative model of the TGFβ pathway. […] As depicted in FIG. 3, it is possible to monitor the phosphorylation level of Smad2 or Samd3 as a reporter for TGFβ signaling activity.
To evaluate the specificity of the requirement for THSD1 for TGFβ signaling in endothelial cells we also tested Activin treatment. […] FIG. 7 is a schematic illustrating that THSD1 has a thrombospondin domain (TSP1) that interacts with mature TGFβ ligand.

[2] = test system: p-Smad2; assay: TGFβ treatment time course of p-Smad2 in HUVEC; assay type: cell-based, human; settings: HUVEC (cell line not restated), FIG. 5c
Experimental: as §1, §2
(§3) To further investigate a potential role for the TGFβ Signaling pathway in the pathology of aneurysms, specifically IA, we also tested TGFβ treatment in different endothelial cells including HBMEC and HUVEC. HBMEC is a primary brain endothelial cells and HUVEC is primary umbilical vein endothelial cells. […] THSD1 knockdown can block TGFβ signaling.

[3] = test system: p-Smad2; assay: TGFβ treatment time course of p-Smad2 in HBMEC; assay type: cell-based, human; settings: FIG. 5a
Experimental: as §1, §2, §3

[4] = test system: p-Smad2; assay: TGFβ1 time course of p-Smad2 (Western blot) in HEK293T cells; assay type: cell-based; settings: HEK293T cells treated with TGFβ1 at different time points, FIG. 4a
Experimental: HEK293T cells were maintained in DMEM medium (Corning, 10-013-CV) containing 10% fetal bovine serum (Invitrogen, 10082147), 100 IU penicillin, and 100 μg/ml streptomycin. Transfections of small interfering RNAs and plasmid DNA were performed using lipofectamine 2000 (Life Technologies, 11668027) according to the manufacturer's instructions. Alternatively, for cells such as endothelial cells that are hard to transfect, we will utilize lentiviral system to generate stable cell lines.
as §1
FIG. 3 is a drawing depicting a representative model of the TGFβ pathway. […] As depicted in FIG. 3, it is possible to monitor the phosphorylation level of Smad2 or Samd3 as a reporter for TGFβ signaling activity. […]

Activin
time at which p-smad2 reaches the highest level [1]: around 40 mins

TGFβ1: TGFβ ligand; polypeptide used to treat cells and induce Smad2 phosphorylation
time at which p-smad2 reaches the highest level [2]: around 40 mins | time at which p-Smad2 reaches the maximum level [3]: around 40 mins | time at which p-Smad2 reaches plateau [4]: 60 min
